Reference: PubChem BioAssay AID463109 (Sanford-Burnham Center for Chemical Genomics, 2010)
Activity calls are given as the source filed them.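 How the source made its calls: active means mean IC50 below 10 µM; inactive means the rest.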

target: Apelin receptor (Homo sapiens) (UniProt P35414); test: apelin receptor inhibitor analogs – cell-based, luminescence, SAR follow-up (AID 463109); details: CHO-K1 AGTRL-1 PathHunter beta-arrestin luminescence
Sequence (P35414 whole entry, looked up): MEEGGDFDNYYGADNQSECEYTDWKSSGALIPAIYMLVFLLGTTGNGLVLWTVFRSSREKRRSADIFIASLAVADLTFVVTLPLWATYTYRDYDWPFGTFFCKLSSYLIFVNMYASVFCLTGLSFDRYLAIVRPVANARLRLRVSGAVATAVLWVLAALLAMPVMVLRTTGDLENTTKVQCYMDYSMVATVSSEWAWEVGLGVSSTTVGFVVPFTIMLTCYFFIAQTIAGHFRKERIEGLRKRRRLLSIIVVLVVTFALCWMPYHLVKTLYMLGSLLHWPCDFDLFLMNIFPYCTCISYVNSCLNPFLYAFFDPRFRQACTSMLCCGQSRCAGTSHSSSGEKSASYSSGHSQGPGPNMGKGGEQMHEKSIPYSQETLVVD

| Structure (SMILES) | IC50 |
| --- | --- |
| Cc1ccc(C)c(NCC(=O)c2ccc(Cl)cc2)c1 | 0.886 µM |
| O=C1Nc2ccccc2C1=Nc1ccc(F)cc1 | 5.95 µM |
| O=c1cc(CSc2ccc(Cl)cc2)nc(-c2ccccn2)[nH]1 | inactive |
| COc1ccc(C(=O)CNc2cccc(F)c2)cc1 | inactive |
| CC(C)(C)c1ccc(-n2nc(C#N)c(Cl)cc2=O)cc1 | 3.53 µM |
| Cc1cccc2c1NC(=O)C2=Nc1ccc(Cl)cc1 | 8.16 µM |
| CCC[N+](CC#Cc1ccccc1)(CCC)CC(=O)c1ccc(Cl)cc1 | inactive |
| FC(F)(F)c1cccc(Sc2nc(-c3ccccc3)nnc2C(F)(F)F)c1 | inactive |
| O=C1Nc2ccccc2C1=Nc1ccc(Br)cc1 | 5.52 µM |
| O=C(COC(=O)c1cnccn1)c1ccc(Cl)c([N+](=O)[O-])c1 | 8.31 µM |
| Cc1cc(C)nc(NNS(=O)(=O)c2c(F)cc(F)cc2Br)n1 | 2.9 µM |
| COc1cccc(/C=C/c2ccc3cccc(O)c3n2)c1OC | inactive |
| Cc1ccc2nc(C)cc(C(=O)OCC(=O)c3ccc(Cl)c([N+](=O)[O-])c3)c2c1 | inactive |
| CCC1CCCCN1CC(=O)c1ccc(OC(F)F)cc1 (stereo not given) | inactive |
| CC(C)Cc1nc2oc3c(Cl)ncnc3c2c2c1CCC2 | inactive |
| O=C(CNc1cccc(Cl)c1)c1ccc(Br)cc1 | > 79 µM (inactive) |
| Cc1cc(C)nc(NNS(=O)(=O)c2ccc(Cl)cc2)n1 | 8.98 µM |
| COc1ccc(S(=O)(=O)NNc2nc(C)cc(C)n2)cc1Br | inactive |
| Cc1cc(C)nc(NNS(=O)(=O)c2ccc(F)c(Cl)c2)n1 | 2.62 µM |
| CC(C(=O)OCC(=O)c1cccc([N+](=O)[O-])c1)N1C(=O)C2C3C=CC(C3)C2C1=O (stereo not given) | inactive |
| O=C(COC(=O)c1ccncc1)c1ccc(Cl)c(Cl)c1 | inactive |
| NC(=O)c1ccccc1NCC(=O)c1ccc(Cl)cc1 | 2.89 µM |
| CCOC(=O)C1=NNC(C(=O)c2ccc(Cl)cc2)C1c1ccccc1 (stereo not given) | inactive |
| Oc1cccc2ccc(/C=C/c3ccccc3Cl)nc12 | inactive |
| COC(=O)C1NN=C(C(=O)c2ccc(Cl)cc2)C1c1ccc(OC)cc1 (stereo not given) | inactive |
| CNC(=O)c1nnsc1S(=O)(=O)c1ccc(Cl)cc1 | inactive |
| CC(=O)c1ccc(N=C2C(=O)Nc3ccccc32)cc1 | 1.46 µM |
| Cc1ccc(N=C2C(=O)Nc3c(C)cccc32)cc1 | inactive |

| Structure (SMILES) | IC50 |
| --- | --- |
| Cn1c(=O)c(C(=S)NC(=O)C2CC2)c(N)n(Cc2ccccc2)c1=O | inactive |
| S=C1NCCc2ccccc2C1c1ccccc1Cl (stereo not given) | inactive |
| Cc1ccc(N=C2C(=O)Nc3ccc(Br)cc32)cc1 | 4.73 µM |
| Cc1ccc(C(=O)CNc2ccccc2)cc1 | 2.81 µM |
| O=C(Nc1nc2c(F)cc(F)cc2s1)c1ccccn1 | 7.55 µM |
| CCOc1ccc(N=C2C(=O)Nc3ccc(C)c(Br)c32)cc1 | 6.58 µM |
| O=S(=O)(NN=Cc1ccc(-c2ccccc2Cl)o1)c1ccccc1 | inactive |
| COc1ccccc1NCC(=O)c1ccc(Cl)cc1 | 3.46 µM |
| O=c1c2cc(Br)ccc2[nH]c(=S)n1Cc1ccccn1 | inactive |
| CC(C)N1CCc2c(sc(NC(=O)c3cc(-c4cccs4)nc4ccccc34)c2C(N)=O)C1 | inactive |
| Cc1ccc(C(=O)CNc2cc(C)ccc2C)cc1 | 2.31 µM |
| O=C(CNc1ccc(Br)cc1)c1ccccc1 | 2.26 µM |
| O=C(CNS(=O)(=O)c1ccccc1)OCC(=O)c1cccc([N+](=O)[O-])c1 | inactive |
| CC(=O)Nc1ccc(NC(=O)CCC(=O)OCC(=O)c2ccc(C)c([N+](=O)[O-])c2)cc1 | inactive |
| COc1ccc(N=C2C(=O)Nc3ccc(C)c(Br)c32)cc1 | > 79 µM (inactive) |
| O=C(CNc1ccccc1C(=O)O)c1ccccc1 | 2.92 µM |
| Cc1ccc(OCC(=O)OCC(=O)c2cccc([N+](=O)[O-])c2)cc1C | inactive |
| Cc1ccc(N=C2C(=O)Nc3ccccc32)cc1 | inactive |
| CC(C)OC(=O)CN1C(=O)C(=O)c2ccccc21 | 4.14 µM |
| O=C(Nc1nc2ccc(F)cc2s1)c1ccccn1 | inactive |
| CC1(C)CC2(CC(c3ccccc3F)c3cc(Cl)c(O)cc3O2)NC(=S)N1 (stereo not given) | 5.71 µM |
| Cc1cccc(N=C2C(=O)Nc3c(Cl)cccc32)c1 | 2.3 µM |
| CCN(CC)CC(=O)c1ccc(-c2ccccc2)cc1 | inactive |
| O=C(COC(=O)c1cccnc1)c1ccc(Cl)c(Cl)c1 | inactive |
| CSc1cccc(N=C2C(=O)Nc3ccccc32)c1 | 3.82 µM |
| O=C(CNC(=O)c1ccco1)NCC(=O)OCC(=O)c1ccc(Cl)c([N+](=O)[O-])c1 | 5.42 µM |
| COc1ccc(S(=O)(=O)NNc2nc(C)cc(C)n2)cc1[N+](=O)[O-] | inactive |
